From PubChem BioAssay (NCI)
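Grown in 96-well plates, cells were treated for 48 hours with each compound at five concentrations. Insufficient inhibition: endpoint recorded as highest concentration tested. GI50 = concentration required for 50% inhibition of growth. TGI denotes the concentration required for complete inhibition of growth.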

Legend:
Experiment in all cases: growth of human tumour cells (NCI), 48 h
CCRF-CEM leukemia = system: CCRF-CEM leukemia
K-562 leukemia = system: K-562 leukemia
ACHN renal = system: ACHN renal
TK-10 renal = system: TK-10 renal
U251 CNS = system: U251 CNS
SW-620 colon = system: SW-620 colon
EKVX NSCLC = system: EKVX NSCLC
SR leukemia = system: SR leukemia
RPMI-8226 leukemia = system: RPMI-8226 leukemia
OVCAR-5 ovarian = system: OVCAR-5 ovarian
UACC-62 melanoma = system: UACC-62 melanoma
OVCAR-4 ovarian = system: OVCAR-4 ovarian
NCI/ADR-RES ovarian = system: NCI/ADR-RES ovarian
RXF 393 renal = system: RXF 393 renal
SK-OV-3 ovarian = system: SK-OV-3 ovarian
NCI-H226 lung = system: NCI-H226 lung
UO-31 renal = system: UO-31 renal
SK-MEL-28 melanoma = system: SK-MEL-28 melanoma
SK-MEL-5 melanoma = system: SK-MEL-5 melanoma
M14 melanoma = system: M14 melanoma
HCT-116 colon = system: HCT-116 colon
COLO 205 colon = system: COLO 205 colon
SK-MEL-2 melanoma = system: SK-MEL-2 melanoma
MDA-MB-231 breast = system: MDA-MB-231 breast
HOP-92 NSCLC = system: HOP-92 NSCLC
HCT-15 colon = system: HCT-15 colon
SF-268 CNS = system: SF-268 CNS
A498 renal = system: A498 renal
SF-295 CNS = system: SF-295 CNS
HCC-2998 colon = system: HCC-2998 colon
NCI-H522 lung = system: NCI-H522 lung
MDA-MB-435 = system: MDA-MB-435
BT-549 breast = system: BT-549 breast
CAKI-1 renal = system: CAKI-1 renal
HOP-62 NSCLC = system: HOP-62 NSCLC
T-47D breast = system: T-47D breast
MALME-3M melanoma = system: MALME-3M melanoma
PC-3 prostate = system: PC-3 prostate
SF-539 CNS = system: SF-539 CNS
MOLT-4 leukemia = system: MOLT-4 leukemia
SNB-19 CNS = system: SNB-19 CNS
IGROV1 ovarian = system: IGROV1 ovarian
786-0 renal = system: 786-0 renal
MCF7 breast = system: MCF7 breast
HS 578T breast = system: HS 578T breast
HT29 colon = system: HT29 colon
UACC-257 melanoma = system: UACC-257 melanoma
SN12C renal = system: SN12C renal
DU-145 prostate = system: DU-145 prostate
OVCAR-3 ovarian = system: OVCAR-3 ovarian
HL-60(TB) leukemia = system: HL-60(TB) leukemia
SNB-75 CNS = system: SNB-75 CNS
NCI-H460 lung = system: NCI-H460 lung
KM12 colon = system: KM12 colon
A549 NSCLC = system: A549 NSCLC

SMILES: COC(=O)c1cccc(NC2=C(Cl)C(=O)c3nc(C)ccc3C2=O)c1
- GI50 (CCRF-CEM leukemia): 2.01 µM
- TGI (CCRF-CEM leukemia): 5.48 µM
- GI50 (K-562 leukemia): 0.976 µM
- TGI (K-562 leukemia): 3.94 µM
- GI50 (ACHN renal): 1.78 µM
- TGI (ACHN renal): 3.4 µM
- GI50 (TK-10 renal): 1.78 µM
- TGI (TK-10 renal): 3.19 µM
- GI50 (U251 CNS): 3.27 µM
- TGI (U251 CNS): 11.8 µM
- GI50 (SW-620 colon): 1.97 µM
- TGI (SW-620 colon): 4.03 µM
- GI50 (EKVX NSCLC): 1.77 µM
- TGI (EKVX NSCLC): 3.6 µM
- GI50 (SR leukemia): 1.83 µM
- TGI (SR leukemia): 4.62 µM
- GI50 (RPMI-8226 leukemia): 2.14 µM
- TGI (RPMI-8226 leukemia): 6 µM
- GI50 (OVCAR-5 ovarian): 3.14 µM
- TGI (OVCAR-5 ovarian): 14.7 µM
- GI50 (UACC-62 melanoma): 2.62 µM
- TGI (UACC-62 melanoma): 8.1 µM
- GI50 (OVCAR-4 ovarian): 1.42 µM
- TGI (OVCAR-4 ovarian): 2.89 µM
- GI50 (NCI/ADR-RES ovarian): 2.25 µM
- TGI (NCI/ADR-RES ovarian): 6.28 µM
- GI50 (RXF 393 renal): 1.57 µM
- TGI (RXF 393 renal): 2.94 µM
- GI50 (SK-OV-3 ovarian): 12.5 µM
- TGI (SK-OV-3 ovarian): 25.2 µM
- GI50 (NCI-H226 lung): 2.02 µM
- TGI (NCI-H226 lung): 4.39 µM
- GI50 (UO-31 renal): 1.44 µM
- TGI (UO-31 renal): 2.79 µM
- GI50 (SK-MEL-28 melanoma): 1.96 µM
- TGI (SK-MEL-28 melanoma): 3.71 µM
- GI50 (SK-MEL-5 melanoma): 1.8 µM
- TGI (SK-MEL-5 melanoma): 3.34 µM
- GI50 (M14 melanoma): 1.84 µM
- TGI (M14 melanoma): 3.42 µM
- GI50 (HCT-116 colon): 1.6 µM
- TGI (HCT-116 colon): 3.32 µM
- GI50 (COLO 205 colon): 1.77 µM
- TGI (COLO 205 colon): 3.76 µM
- GI50 (SK-MEL-2 melanoma): 2.27 µM
- TGI (SK-MEL-2 melanoma): 6.48 µM
- GI50 (MDA-MB-231 breast): 2.15 µM
- TGI (MDA-MB-231 breast): 5.08 µM
- GI50 (HOP-92 NSCLC): 1.92 µM
- TGI (HOP-92 NSCLC): 3.95 µM
- GI50 (HCT-15 colon): 1.54 µM
- TGI (HCT-15 colon): 3.33 µM
- GI50 (SF-268 CNS): 2.76 µM
- TGI (SF-268 CNS): 9.59 µM
- GI50 (A498 renal): 12 µM
- TGI (A498 renal): 24.6 µM
- GI50 (SF-295 CNS): 15.8 µM
- TGI (SF-295 CNS): 29.9 µM
- GI50 (HCC-2998 colon): 2.21 µM
- TGI (HCC-2998 colon): 4.8 µM
- GI50 (NCI-H522 lung): 1.89 µM
- TGI (NCI-H522 lung): 4.46 µM
- GI50 (MDA-MB-435): 2.04 µM
- TGI (MDA-MB-435): 4.29 µM
- GI50 (BT-549 breast): 1.68 µM
- TGI (BT-549 breast): 3.09 µM
- GI50 (CAKI-1 renal): 1.71 µM
- TGI (CAKI-1 renal): 3.28 µM
- GI50 (HOP-62 NSCLC): 15.1 µM
- TGI (HOP-62 NSCLC): 29.6 µM
- GI50 (T-47D breast): 2.04 µM
- TGI (T-47D breast): 5.02 µM
- GI50 (MALME-3M melanoma): 1.95 µM
- TGI (MALME-3M melanoma): 3.76 µM
- GI50 (PC-3 prostate): 2.8 µM
- TGI (PC-3 prostate): 10.3 µM
- GI50 (SF-539 CNS): 1.75 µM
- TGI (SF-539 CNS): 3.27 µM
- GI50 (MOLT-4 leukemia): 2.53 µM
- TGI (MOLT-4 leukemia): 5.68 µM
- GI50 (SNB-19 CNS): 10.8 µM
- TGI (SNB-19 CNS): > 100 µM
- GI50 (IGROV1 ovarian): 1.98 µM
- TGI (IGROV1 ovarian): 3.89 µM
- GI50 (786-0 renal): 1.86 µM
- TGI (786-0 renal): 3.66 µM
- GI50 (MCF7 breast): 1.89 µM
- TGI (MCF7 breast): 4.61 µM
- GI50 (HS 578T breast): 2.46 µM
- TGI (HS 578T breast): 6.26 µM
- GI50 (HT29 colon): 2.32 µM
- TGI (HT29 colon): 6.09 µM
- GI50 (UACC-257 melanoma): 1.57 µM
- TGI (UACC-257 melanoma): 3 µM
- GI50 (SN12C renal): 2.13 µM
- TGI (SN12C renal): 5.4 µM
- GI50 (DU-145 prostate): 1.86 µM
- TGI (DU-145 prostate): 3.39 µM
- GI50 (OVCAR-3 ovarian): 1.59 µM
- TGI (OVCAR-3 ovarian): 3.03 µM
- GI50 (HL-60(TB) leukemia): 1.53 µM
- TGI (HL-60(TB) leukemia): 3.64 µM
- GI50 (SNB-75 CNS): 13.2 µM
- TGI (SNB-75 CNS): 26.2 µM
- GI50 (NCI-H460 lung): 18.5 µM
- TGI (NCI-H460 lung): 41.5 µM
- GI50 (KM12 colon): 13.3 µM
- TGI (KM12 colon): 29.4 µM
- GI50 (A549 NSCLC): 18.1 µM
- TGI (A549 NSCLC): 37.9 µM
